Biological target: T1, CRTh2 receptor (Homo sapiens, UniProt Q9Y5Y4)
T1 construct: expressed in transfected cells
T1 sequence (Q9Y5Y4 1-395): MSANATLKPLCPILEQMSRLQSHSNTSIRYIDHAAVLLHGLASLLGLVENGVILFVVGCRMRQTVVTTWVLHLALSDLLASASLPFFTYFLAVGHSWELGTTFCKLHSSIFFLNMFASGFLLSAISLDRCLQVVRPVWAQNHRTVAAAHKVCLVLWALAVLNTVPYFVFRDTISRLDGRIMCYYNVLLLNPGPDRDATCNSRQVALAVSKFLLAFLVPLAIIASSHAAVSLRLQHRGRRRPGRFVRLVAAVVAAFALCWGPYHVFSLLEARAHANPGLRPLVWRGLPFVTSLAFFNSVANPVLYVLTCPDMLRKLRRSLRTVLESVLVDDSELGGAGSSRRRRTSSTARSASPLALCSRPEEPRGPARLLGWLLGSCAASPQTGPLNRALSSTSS
Test: Intracellular calcium mobilisation (FLIPr, fluo-3AM), inhibition of the response to PGD2 in HEK-hrCRTh2-Gα16 cells
Type: cell-based
Conditions: antagonist affinity vs PGD2, pIC50 Cheng-Prusoff analysis, read-out: pA2 (converted)
Experimental: Pharmacological Data—Intracellular Calcium Mobilisation
Human Embryonic Kidney Cells co-transfected with both the CRTh2 receptor and […] G-protein (HEK-hrCRTh2-G[…]16) are routinely cultured as monolayers in Dulbecco's Modified Eagles Medium (DMEM; Sigma) supplemented with 10% (v:v) heat inactivated foetal bovine serum (New Zealand sourced; Hyclone), 1% (v:v) non-essential amino acids (Gibco BRL), 1% (v:v) penicillin/streptomycin (Gibco BRL), 2 mM L-glutamine (Gibco BRL) and grown under 1 mg/ml […] Geneticin (Gibco BRL) antibiotic selection. Approximately 24 hours prior to the assay the cells are plated at a seeding density of 100,000 cells/well in 100 µl growth media into black walled 96 well Poly-D-Lysine coated plates (Becton Dickinson), with clear bottoms to allow cell inspection and fluorescence measurements from the bottom of each well. All cultures are maintained under standard tissue culture conditions (37° C. in a humidified atmosphere of 5% CO2).
To enable changes in intracellular calcium levels to be measured in HEK-hrCRTh2-Gα16 cells fluo-3AM is utilised as the fluorescent calcium indicator. A dye loading buffer is prepared which consists of a final concentration of 5 µM Fluo-3AM fluorescent cytoplasmic calcium indicator dye (Tef Labs), 2.2 µl/ml Pluronic F127 (Molecular Probes) to promote dye uptake, and 0.5 mM brilliant black (Sigma) to reduce background fluorescence in Balanced Salt Solution (BSS; 125 mM NaCl, 5.4 mM KCl, 16.2 mM NaHCO3, 0.8 mM MgCl2, 1 mM CaCl2, 20 mM HEPES, 1 mM NaH2PO4, 5.5 mM D-(+)-Glucose, 0.1% BSA and pH 7.4 with NaOH). […]
Test compounds are made up at a stock concentration of 10 mM in DMSO. The compounds to be evaluated are then prepared, by serial dilution in BSS buffer, to the required concentrations for inhibition dose response curves to be constructed. […] This allows the potency agonist (p[A]50) value to be determined for the HEK-hrCRTh2-Gα16 cells on any given day. Once the p[A]50 for PGD2 has been determined a separate assay plate containing 2×p[A]50 of PGD2 is prepared as the 2nd addition plate (or agonist plate). […]

COc1ccc2c(c1)c(CC(=O)O)c(C)n2-c1ncnc2c(Cl)cc(Cl)cc12 [1-(6,8-dichloro-4-quinazolinyl)-5-methoxy-2-methyl-1H-indole-3-acetic acid] was tested, and the Kb was 1000 nM.

Cc1c(CC(=O)O)c2ccccc2n1-c1ncnc2cc(Cl)ccc12 [1-(7-chloro-4-quinazolinyl)-2-methyl-1H-indole-3-acetic acid] gave a Kb of 1580 nM.

Cc1c(CC(=O)O)c2cc(C(C)C)ccc2n1-c1ncnc2cc(Cl)ccc12 [1-(7-chloro-4-quinazolinyl)-2-methyl-5-(1-methylethyl)-1H-indole-3-acetic acid] gave a Kb of 158 nM.
